According to article PMC6108835, “Target-Based Discovery of an Inhibitor of the Regulatory Phosphatase PPP1R15B” (Cell, 2018):

What was measured:
brains of R15a −/− mice = assay: Monitoring translation rates in vivo, brains of R15a −/− mice; parameters: species or system mouse; details: 40 mg/kg
Procedure: (§1) 3 months old treatment- and test-naive C57BL/6J males were treated as indicated. 30 min before the end of treatment mice were injected intraperitoneally with 0.75 mCi/kg radioactive label – 75% ^35S-methionine + 25% ^35S-cystine (Hartmann Analytic). At the end of treatment mice were culled by cervical dislocation, brains were extracted, fresh-frozen in liquid nitrogen and kept at −80°C until use. Tissue was homogenized and lysed in Laemmli Buffer (1 mL for 0.5 mg tissue). Lysates were boiled at 95°C for 5 min, sonicated and resolved on Bolt SDS-PAGE 4%–12% Bis-Tris gels (ThermoFisher Scientific). Gels were then stained with InstantBlue (Expedeon) and after the gels had been imaged they were transferred to a 20% ethanol, 7% acetic acid, 4% glycerol solution for 10 min. This was to prevent the gels from cracking while drying. The gels were transferred to filter paper and dried using a gel dryer. The gels were then exposed to a Storage Phosphor Screen (GE Healthcare) and analyzed by phosphorimaging using a Typhoon Imager Scanner (GE Healthcare).

HeLa cells [1] = assay: Monitoring cell viability (CellTox Green, IncuCyte); format: cell-based
Procedure: HeLa cells (40,000 cells/mL) were plated in 96-well plates (0.1 mL/well). The following day the cells were treated with different concentrations of Raphin1, in triplicate, as indicated and incubated at 37°C for 48 hr. To monitor cell death 1:2,000 dilution of the CellTox Green Dye (Promega) was added to the medium. The growth of the cells was monitored over time and pictures taken every 2 hr (two per well) with the IncuCyte ZOOM system (Essen BioScience). The default software parameters for a 96-well plate (Corning) with a 10x objective were used for imaging and the images were analyzed by the IncuCyte ZOOM software (Essen BioScience). The software was used to calculate the confluency from the two non-overlapping images of each well at each time point. The phase confluency refers to the percentage of the image area that is occupied by cells. The green confluency refers to the percentage of the image area that fluoresces green. The CellTox Green Dye (Promega) preferentially stains dead cells’ DNA, but is excluded from viable cells. To assess the effect of Raphin1 on cell viability, the percentage of dead cells was calculated as follows: %ofdeadcells=Greenconfluency(%)atXhours/Phaseconfluency(%)atXhours×100

[2] = Pharmacokinetics after single oral administration in mice; format: in vivo; details: mouse
Procedure: The acetate salts of Raphin1 or GBZ were dissolved in water and sonicated for 10 min. The solution was aliquoted and kept at −20°C until use. Once thawed a tube was kept at 4°C and used within 24 hr. The compounds were administered by oral gavage.
Raphin1 was administered at 2 mg/kg (unless otherwise specified). Mice received a single dose or were treated chronically – one time per day. Control mice were treated with vehicle (water) only.
Pharmacokinetics studies were performed by XenoGesis Ldt. Raphin1 was administrated orally in 6 weeks old treatment- and test-naive C57BL/6J males. Plasma samples were prepared by protein precipitation with methanol containing internal standards. Tissues were weighed and prepared by homogenization (1:3 in phosphate buffered saline) and protein precipitated with methanol containing internal standard. Following the addition of methanol, plasma and tissue samples were placed at −20°C for ≥ 1 hr (or overnight) to allow proteins to precipitate. The samples were then centrifuged at 2,500 x g (3,400 rpm) for 20 min at 4°C. The supernatants were analyzed by LC-MS/MS.

[3] = biological target: T1, R15B-PP1c holophosphatase (R15B^340-698-PP1c) (Homo sapiens, UniProt Q5SWA1); assay: Holophosphatase SPR, compounds binding to reconstituted R15B-PP1c; details: holophosphatase reconstituted on SA chip; 20°C; mean ± SD; read-out: KD, steady-state affinity for R15B-PP1c
T1 construct: cDNAs encoding amino acids 325-636 of R15A and 340-698 of R15B were cloned into pMAL-c5x; made in house; host or cells: R15B: E. coli BL21-Gold (DE3) pLysS; bio-PP1c: Sf9 insect cells (baculovirus)
T1 sequence (Q5SWA1 340-698): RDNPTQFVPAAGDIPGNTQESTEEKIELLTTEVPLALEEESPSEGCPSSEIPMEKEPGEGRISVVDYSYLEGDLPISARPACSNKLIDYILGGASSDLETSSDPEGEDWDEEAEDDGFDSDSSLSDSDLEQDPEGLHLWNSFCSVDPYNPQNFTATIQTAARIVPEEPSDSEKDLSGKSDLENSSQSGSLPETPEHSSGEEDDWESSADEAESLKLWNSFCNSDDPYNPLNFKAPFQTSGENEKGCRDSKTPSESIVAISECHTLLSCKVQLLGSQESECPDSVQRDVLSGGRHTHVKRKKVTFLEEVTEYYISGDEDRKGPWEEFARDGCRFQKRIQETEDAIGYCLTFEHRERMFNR
T1 sequence (P36873 1-322 partner limits assumed): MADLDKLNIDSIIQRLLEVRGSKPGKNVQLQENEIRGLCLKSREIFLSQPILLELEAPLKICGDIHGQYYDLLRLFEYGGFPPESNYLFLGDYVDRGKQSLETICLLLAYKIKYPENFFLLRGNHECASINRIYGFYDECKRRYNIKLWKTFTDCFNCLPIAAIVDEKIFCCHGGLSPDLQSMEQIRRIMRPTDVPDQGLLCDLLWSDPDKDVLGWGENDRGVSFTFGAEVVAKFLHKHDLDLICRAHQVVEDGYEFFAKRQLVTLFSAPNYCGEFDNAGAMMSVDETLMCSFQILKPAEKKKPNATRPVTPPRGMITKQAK
Procedure: (§2) Small molecules were stored as 50 mM stock solutions in 100% DMSO. […] If necessary the concentration range was adjusted to accurately determine the KD depending on the initial results. […] This was followed by 1 min stabilization period, to wash off any unspecific binding. […] After each dilution series, the surface was regenerated using 3 M NaCl for 90 s. […] In order to be able to correct for small variations in DMSO concentration between samples, eight solvent samples ranging from 0.06 to 8% DMSO were injected every 50th cycle. The flow cell temperature was 20°C.

[4] = test system: R15B-PP1c holophosphatase (R15B^340-698-PP1c); assay: as above; parameters: species or system human; details: ratio of SPR KD values
Procedure: as §2

HeLa cells [5] = assay: Assessment of translation rates (35S-methionine), HeLa cells; format: cell-based, human; details: HeLa cells
Procedure: HeLa or MEF cells (90,000 cells/mL) were plated in 12-well plates (1 mL/well). The following day cells were treated as indicated; the medium was removed, fresh medium containing compound added and incubated at 37°C for the times indicated. The time course was performed in reverse order to facilitate labeling all samples at the same time. After the treatment the cells were labeled with 100 μCi/mL ^35S-methionine (Hartmann Analytic) for 10 min at 37°C (300 μL fresh medium containing 3 μL ^35S-methionine was added to each well). Note that cells were not starved in methionine-free media before labeling with ^35S-methionine for monitoring protein synthesis. The labeled cells were then washed twice with ice-cold PBS and lysed in 120 μL Laemmli Buffer. Lysates were transferred to 1.5 mL eppendorf tubes, boiled at 95°C for 5 min, sonicated and resolved on Bolt SDS-PAGE 4%–12% Bis-Tris gels (ThermoFisher Scientific). Gels were then stained with InstantBlue (Expedeon) and after the gels had been imaged they were transferred to a 20% ethanol, 7% acetic acid, 4% glycerol solution for 10 min. This was to prevent the gels from cracking while drying. The gels were transferred to filter paper and dried using a gel dryer. The gels were then exposed to a Storage Phosphor Screen (GE Healthcare) and analyzed by phosphorimaging using a Typhoon Imager Scanner (GE Healthcare).

brains of wild-type mice = assay: Monitoring translation rates in vivo, brains of wild-type mice; parameters: species or system mouse; details: 40 mg/kg
Procedure: as §1

SMILES: [H]/N=C(\N)NN=Cc1cccc(Cl)c1Cl [Raphin1, (E)-2-(2,3-dichlorobenzylidene)hydrazine-1-carboximidamide]
- Translation recovery in the brains (in words) (brains of R15a −/− mice): recovery was reduced
- Toxicity to cells (% of dead cells) (HeLa cells [1]; 20 μM): toxic
- Toxicity to cells (% of dead cells) (HeLa cells [1]; concentration corresponding to brain level after 2 mg/kg (∼1.5 μM), continuously applied for 48 hr): not toxic
- half-life ([2]; male, C57BL/6J, brain, single oral dose 2 mg/kg): 4 to 6 h
- Oral bioavailability (in words) [2]: orally bioavailable
- Blood-brain barrier crossing ([2]; single oral dose 2 mg/kg): crossed the blood-brain barrier
- Peak concentration in the brain ([2]; single oral dose 2 mg/kg): ~1.5 µM
- Kd [3]: 0.033 ± 0.02 µM
- Selectivity in binding R15B-PP1c over R15A-PP1c [4]: ~30 fold
- Protein synthesis (in words) (HeLa cells [5]; 20 μM): persistent inhibition
- Raphin1-induced eIF2α phosphorylation and translation attenuation (HeLa cells [5]; Raphin1 10 μM in the presence of the R15A inhibitor GBZ 10 μM): persisted
- Protein synthesis (in words) (HeLa cells [5]; unstressed, 10 μM): decreased
- Time of translation recovery after administration (brains of wild-type mice; wild-type brains): ~6 h
- Protein synthesis in the brains (in words) (brains of wild-type mice; wild-type mice): transiently reduced
